Source: paper PMC12797170, “Potent Competitive Inhibitors of Ecto-5′-nucleotidase (CD73) based on 6‑(Het)aryl-7-deazapurine Ribonucleoside 5′‑O‑Bisphosphonates” (ACS Pharmacology & Translational Science, 2025)
Converted amounts (≈) assume the structure as drawn.

Key:
[1] = molecular target: T1, recombinant human CD73 (hCD73) (Homo sapiens, UniProt P21589); experiment: CD73 activity assay on recombinant human CD73; format: biochemical; conditions: ΔGexp = RT ln Ki
T1 sequence (P21589 27-574): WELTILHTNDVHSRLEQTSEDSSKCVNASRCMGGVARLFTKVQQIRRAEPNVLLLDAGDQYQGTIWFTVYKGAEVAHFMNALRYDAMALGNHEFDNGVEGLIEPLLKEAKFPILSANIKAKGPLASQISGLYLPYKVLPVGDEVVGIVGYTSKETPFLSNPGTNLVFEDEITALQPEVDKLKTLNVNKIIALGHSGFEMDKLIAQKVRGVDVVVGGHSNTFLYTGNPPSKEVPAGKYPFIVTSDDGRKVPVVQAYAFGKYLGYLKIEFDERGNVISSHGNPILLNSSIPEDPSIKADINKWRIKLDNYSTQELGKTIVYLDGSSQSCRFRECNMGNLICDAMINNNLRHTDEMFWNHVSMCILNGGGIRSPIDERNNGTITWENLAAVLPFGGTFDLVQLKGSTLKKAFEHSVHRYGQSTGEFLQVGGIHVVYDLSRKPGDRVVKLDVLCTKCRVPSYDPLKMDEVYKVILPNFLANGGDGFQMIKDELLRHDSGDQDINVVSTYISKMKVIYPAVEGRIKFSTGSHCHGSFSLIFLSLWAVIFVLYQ

in vitro [2] = conditions: human, plasma
[3] = Plasma protein binding, equilibrium dialysis, human plasma; format: in vitro ADME; conditions: undiluted plasma, human plasma protein binding, read-out: PPB (hu) (converted)
Description: (§1) Plasma protein binding of the investigated compounds was determined using equilibrium dialysis in single-use Rapid Equilibrium Dialysis devices with an 8 kDa molecular weight cutoff (Thermo Fisher Scientific), following the manufacturer’s protocol. In brief, 50 μL of undiluted human plasma (Biowest), spiked with the test compound at a final concentration of 100 μM, was added to the sample chamber, while 300 μL of phosphate-buffered saline (PBS) was placed in the buffer chamber. Devices were incubated for 4 h at 37 °C with gentle shaking.
(§2) After dialysis, 7.5 μL aliquots from both the plasma and buffer chambers were transferred directly into wells of a 384-well plate. To equalize the matrices for downstream processing, 7.5 μL of PBS was added to each plasma aliquot, and 7.5 μL of plasma was added to each buffer aliquot. Proteins were precipitated by adding four volumes of ice-cold methanol to each well, followed by thorough mixing and incubation at – 20 °C for 30 min. Plates were then stored overnight at 8 °C. Prior to analysis, the plate was centrifuged at 2,000 × g for 20 min at 8 °C. […] The fraction of unbound compound was calculated using the following equations: %Free=c(bufferchamber)/c(plasmachamber)*100% %Bound=100%−%Free

[4] = Kinetic solubility in PBS; format: physicochemical; conditions: phosphate-buffered saline, pH 7.4, aqueous buffer, kinetic from dmso stock
Description: Test compounds were prepared as 10 mM stock solutions in DMSO and diluted in phosphate-buffered saline (PBS, pH 7.4) to a 100 μM solution, which was then aliquoted in duplicate. The duplicate samples were incubated in Multiscreen PCF Filter Plates (Merck Millipore) with sealed bottom at room temperature on a shaker for 2 h to allow equilibration. Following incubation, the samples were centrifuged into nonsterile, flat-bottom 96-well plates at 2,200 RCF for 12 min. Supernatants were then diluted 1:99 in a solution of 50% acetonitrile containing 0.1% DMSO. The diluted samples were transferred to 384-well Echo plates, which contained prespotted calibration standards prepared by Echo transfer of 10 mM and 1 mM DMSO stock solutions, resulting in calibration points ranging from 0.05 to 4 μM. Samples and standards were subsequently analyzed by Echo-MS.

in vitro [5] = conditions: mouse, plasma
[6] = tested on: nonmalignant human dermal fibroblasts (NHDF); experiment: In vitro cytotoxic activity; format: cell-based
Description: (§3) All the compounds were also tested for their in vitro cytotoxic activity on a small panel of four cancer cell lines (CCRF-CEM, HepG2, HeLa S3, HL-60) and nonmalignant human dermal fibroblasts (NHDF).

HL-60 = experiment: In vitro cytotoxic activity; format: cell-based; conditions: Homo sapiens
Description: as §3

HepG2 = experiment: In vitro cytotoxic activity; format: cell-based; conditions: Homo sapiens
Description: as §3

CCRF-CEM = experiment: In vitro cytotoxic activity; format: cell-based; conditions: Homo sapiens
Description: as §3

HeLa S3 = experiment: In vitro cytotoxic activity; format: cell-based; conditions: Homo sapiens
Description: as §3

[7] = Plasma protein binding, mouse plasma; format: in vitro ADME; conditions: mouse, plasma, mouse plasma protein binding; read-out: PPB (m) (converted)
Description: as §1, §2

[8] = Microsomal stability assay, human liver microsomes; format: in vitro ADME; conditions: for Mics (hu) comp remaining 60 min: 10 μM; for microsomal CLint at 10 µM: pooled liver microsomes, pH 7.4, read-out: Mics (hu) CLint
[9] = Microsomal stability assay, mouse liver microsomes; format: in vitro ADME; conditions: for microsomal CLint at 10 µM: pooled liver microsomes, pH 7.4, read-out: Mics (m) CLint

SMILES | dG_exp, experimental binding free energy [1] | half-life at 10 µM (in vitro [2]) [h] | fraction unbound at 4 h, 100 µM [3] | solubility at 2 h [4] [µM] | half-life at 10 µM (in vitro [5]) [h] | IC50 [6] [µM] | IC50 (HL-60) [µM] | IC50 (HepG2) [µM] | IC50 (CCRF-CEM) [µM] | IC50 (HeLa S3) [µM] | fraction unbound at 4 h, 100 µM [7] | Mics (hu) comp remaining 60 min [8] [%] | microsomal CLint at 10 µM [8] [µL/min/mg] | microsomal CLint at 10 µM [9] [µL/min/mg] | Mics (m) comp remaining 60 min ([9]; 10 μM) [%]
O=P(O)(O)CP(=O)(O)OC[C@H]1O[C@@H](n2ccc3c(-c4cccs4)ncnc32)[C@H](O)[C@@H]1O [4A.3] | –13.1 kcal/mol | > 2 | 0.081 | 76 (≈ 37.3 µg/mL) | > 2 | > 10 | 4.2 | > 10 | 9.9 | > 10 | 0.535 |  |  |  | 
O=P(O)(O)CP(=O)(O)OC[C@H]1O[C@@H](n2ccc3c(-c4cc5ccccc5o4)nc(F)nc32)[C@H](O)[C@@H]1O [14D.8] | –14.3 kcal/mol | > 2 | 0.008 | 76 (≈ 41.3 µg/mL) | > 2 | > 10 | > 10 | > 10 | > 10 | > 10 | 0.286 | 107 | < 1 | < 1 | 
O=P(O)(O)CP(=O)(O)OC[C@H]1O[C@@H](n2ccc3c(-c4cccc5ccoc45)ncnc32)[C@H](O)[C@@H]1O [4A.15] | –13.4 kcal/mol | > 2 | 0.036 | 76 (≈ 39.9 µg/mL) | > 2 | 5.7 | 8.6 | 8.7 | > 10 | > 10 | 0.542 | 118 | < 1 | < 1 | 102
O=P(O)(O)CP(=O)(O)OC[C@H]1O[C@@H](n2ccc3c(-c4ccoc4)ncnc32)[C@H](O)[C@@H]1O [4A.2] | –12.5 kcal/mol | > 2 | 0.162 | 97 (≈ 46.1 µg/mL) | > 2 | > 10 | 2.8 | > 10 | > 10 | > 10 | 0.872 |  |  |  | 
O=P(O)(O)CP(=O)(O)OC[C@H]1O[C@@H](n2ccc3c(-c4ccccc4)ncnc32)[C@H](O)[C@@H]1O [4A.5] | –12.6 kcal/mol | > 2 | 0.095 | 80 (≈ 38.8 µg/mL) | > 2 | > 10 | 3.7 | > 10 | > 10 | > 10 | 0.788 |  |  |  | 
O=P(O)(O)CP(=O)(O)OC[C@H]1O[C@@H](n2ccc3c(-c4ccco4)ncnc32)[C@H](O)[C@@H]1O [4A.1, [(5-{[4-(Furan-2-yl)-7H-pyrrolo[2,3-d]pyrimidin-7-yl]-β-D-ribofuranosyl}oxy)phosphonomethyl]phosphonic Acid] | –12.9 kcal/mol | > 2 | 0.053 | 25 (≈ 11.9 µg/mL) | > 2 | > 10 | 3.7 | > 10 | > 10 | > 10 | 0.699 |  |  |  | 
